Assay: Metabolite analysis of plasma and brain tissue (SPE/HPLC)
Assay type: in vivo, rat
Settings: for parent compound as share of the radioactivity in brain: rat brain; for percentage of radioactivity associated with parent: rat plasma
Method: Sixteen adult male Sprague-Dawley rats (body weight 250-320 g: mean±SD=288±25 g) were used in 5 separate experiments. Each rat was injected with ˜13 MBq Compound 1, at a specific activity of […], via a previously catheterised tail vein. The associated stable compound was 0.5±0.2 nmol/kg. Discrete samples of arterial blood were collected from 9 of the rats via a previously catheterised tail artery.
Plasma samples were injected directly onto a solid phase extraction (SPE) column (C18), with di-ammonium hydrogen phosphate (0.1 M) mobile phase, and the retained radioactivity subsequently injected onto a reverse phase HPLC column (300×7.8 mm i.d., p-Bondapak C18) with a mobile phase of methanol:0.1 M ammonium formate, […]. The eluates were monitored for radioactivity and absorbance at 254 nm. Brain tissues were assayed using the same methodology, excepting that the samples were homogenised and de-proteinated prior to injection onto the HPLC column.

CSc1cccc(N([11CH3])C(=N)Nc2cc(SC)ccc2Cl)c1 [Compound 1, (N-(2-chloro-5-(methylthio)phenyl)-N′-(3-methylthio)phenyl)-N′-[N-methyl-^11C]-methylguanidine]
parent compound as share of the radioactivity in brain (20 minutes after i.v. injection): approximately 95%
parent compound as share of the radioactivity in brain (70 minutes after i.v. injection): ~90%
percentage of radioactivity associated with parent (10 min after i.v. injection): ~50%
percentage of radioactivity associated with parent (90 min after i.v. injection): ~5%
metabolism and clearance from the plasma (rat, i.v.): rapid metabolism and clearance
